EC50 and IC50 data for 16 compounds are collected here from US20250129069A1, “TRIAZOLO WRN INHIBITORS” (Nimbus Wadjet, Inc., priority 2023, published 2025).

Test [1] concerns p21 induction in HCT 116 cells. The experiment in a line: p21 induction in cells (In-Cell Western, p21/GAPDH ratio). Conditions: 24 h compound incubation, read-out: p21_EC50. It counts as cell-based. Summed up:
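EC50 values come from nonlinear fits of percent activation, defined by the 800/700 nm p21-to-GAPDH ratio scaled between DMSO (low) and internal WRN inhibitor (high) controls. In-Cell Western read after 24 h compound exposure of HCT 116 cells at 37° C. Duplicate 11-point series, 2-fold steps, usually starting at 10 μM.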

Test [2] addresses human Werner helicase (WRN, amino acids 517-1235 with L1074F point mutation) (Homo sapiens (Human), UniProt Q14191, L1074F). The experiment in a line: WRN (BV08) ADP-Glo assay. It counts as biochemical. To be noted: human WRN (aa 517-1235, L1074F), read-out: ADP-Glo_hWRN_IC50. The procedure, abridged:
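ADP-Glo luminescence read after 60 min, 25 °C reaction of 0.15 nM WRN (517-1235, L1074F, Sf9-expressed, tag removed) with 0.1 nM DNA duplex and 5 μM ATP, following 15 min compound preincubation; 20 mM Bicine pH 7.5, 1% DMSO. IC50 from 3- or 4-parameter fit of % inhibition.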

Where two headings read alike, the source gives them in different places.

Chain of human Werner helicase (WRN, amino acids 517-1235 with L1074F point mutation) (Q14191 other isoform, or with tags, fused parts or gaps L1074F (already in the parent)): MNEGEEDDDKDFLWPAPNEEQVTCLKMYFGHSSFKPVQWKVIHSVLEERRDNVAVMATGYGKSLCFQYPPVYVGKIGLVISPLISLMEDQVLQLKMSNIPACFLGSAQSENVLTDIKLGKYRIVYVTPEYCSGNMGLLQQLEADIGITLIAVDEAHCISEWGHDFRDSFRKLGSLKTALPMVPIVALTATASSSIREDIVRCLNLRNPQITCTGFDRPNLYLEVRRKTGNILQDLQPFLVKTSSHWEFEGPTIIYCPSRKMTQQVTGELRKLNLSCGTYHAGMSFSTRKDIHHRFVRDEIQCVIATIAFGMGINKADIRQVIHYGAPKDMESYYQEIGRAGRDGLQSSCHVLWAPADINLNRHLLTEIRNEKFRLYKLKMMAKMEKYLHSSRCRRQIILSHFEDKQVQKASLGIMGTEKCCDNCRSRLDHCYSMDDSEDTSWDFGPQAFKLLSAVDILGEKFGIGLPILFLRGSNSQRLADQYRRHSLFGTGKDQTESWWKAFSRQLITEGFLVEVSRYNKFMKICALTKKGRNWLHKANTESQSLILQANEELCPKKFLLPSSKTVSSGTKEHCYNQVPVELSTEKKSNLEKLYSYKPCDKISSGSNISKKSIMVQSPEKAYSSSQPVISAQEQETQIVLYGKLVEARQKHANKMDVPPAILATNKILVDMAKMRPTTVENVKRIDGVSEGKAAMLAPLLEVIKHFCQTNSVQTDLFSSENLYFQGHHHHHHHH

For the compound `CCc1c(N2CCN(C(=O)c3c(OC)ncc(C)c3O)CC2)c(=O)c2nn(-c3ccnc(OC)c3)nc2n1CC(=O)NC12CC(C(C)(F)F)(C1)C2` [Compound I-122, N-[3-(1,1-difluoroethyl)bicyclo[1.1.1]pentan-1-yl]-2-{5-ethyl-6-[4-(4-hydroxy-2-methoxy-5-methylpyridine-3-carbonyl)piperazin-1-yl]-2-(2-methoxypyridin-4-yl)-7-oxo-2H,4H,7H-[1,2,3]triazolo[4,5-b]pyridin-4-yl}acetamide], in test [1] (Homo sapiens), the EC50 is 500 to 2000 nM. Further, the IC50 in test [2] is 5 to 50 nM.

Consider `CCc1c(N2CCN(C(=O)c3c(OC)ncc(C)c3O)CC2)c(=O)c2nn(-c3ccnc(OC)c3)nc2n1CC(=O)NC1CC2(CCC(F)(F)CC2)C1` [Compound I-106, N-{7,7-difluorospiro[3.5]nonan-2-yl}-2-{5-ethyl-6-[4-(4-hydroxy-2-methoxy-5-methylpyridine-3-carbonyl)piperazin-1-yl]-2-(2-methoxypyridin-4-yl)-7-oxo-2H,4H,7H-[1,2,3]triazolo[4,5-b]pyridin-4-yl}acetamide], for which the EC50 in test [1] (Homo sapiens) was greater than 5000 nM. Also, the IC50 in test [2] lay within 5 to 50 nM.

As for `CCc1c(N2CCN(C(=O)c3cc(N4CCN(C)CC4)ccc3OC)[C@H]3CC[C@@H]32)c(=O)c2nn(C3=CCOCC3)nc2n1CC(=O)NC12CC(C(C)C)(C1)C2` [Compound I-165, 2-[2-(3,6-dihydro-2H-pyran-4-yl)-5-ethyl-6-[(1S,6S)-5-[2-methoxy-5-(4-methylpiperazin-1-yl)benzoyl]-2,5-diazabicyclo[4.2.0]octan-2-yl]-7-oxo-2H,4H,7H-[1,2,3]triazolo[4,5-b]pyridin-4-yl]-N-[3-(propan-2-yl)bicyclo[1.1.1]pentan-1-yl]acetamide], the EC50 in test [1] (Homo sapiens) was 500 to 2000 nM. Also, the IC50 in test [2] was in the range of 5 to 50 nM.

On to `CCc1c(N2CCN(C(=O)c3c(OC)ncc(OC)c3O)CC2)c(=O)c2nn(-c3ccnc(OC)c3)nc2n1CC(=O)NC12CC(C(C)C)(C1)C2` [Compound I-64, 2-{5-ethyl-6-[4-(4-hydroxy-2,5-dimethoxypyridine-3-carbonyl)piperazin-1-yl]-2-(2-methoxypyridin-4-yl)-7-oxo-2H,4H,7H-[1,2,3]triazolo[4,5-b]pyridin-4-yl}-N-[3-(propan-2-yl)bicyclo[1.1.1]pentan-1-yl]acetamide], for which the EC50 in test [1] (Homo sapiens) was no more than 500 nM. Moreover, the IC50 in test [2] lay within 5 to 50 nM.

For the compound `CCc1c(C2=CCN(C(=O)c3ncnc(C)c3O)CC2)c(=O)c2nn(-c3ccnc(OC)c3)nc2n1CC(=O)NC12CC(C(C)C)(C1)C2` [Compound I-79, 2-{5-ethyl-6-[1-(5-hydroxy-6-methylpyrimidine-4-carbonyl)-1,2,3,6-tetrahydropyridin-4-yl]-2-(2-methoxypyridin-4-yl)-7-oxo-2H,4H,7H-[1,2,3]triazolo[4,5-b]pyridin-4-yl}-N-[3-(propan-2-yl)bicyclo[1.1.1]pentan-1-yl]acetamide], the EC50 in test [1] (Homo sapiens) lay in the range of 500 to 2000 nM. In addition, in test [2], the IC50 was in the range of 5 to 50 nM.

For `CCc1c(N2CCN(C(=O)c3c(OC)ncc(C)c3O)CC2)c(=O)c2nn(-c3ccnc(OC)c3)nc2n1CC(=O)NC12CC(C3CCOC3)(C1)C2` (centres unmarked) [Compound I-123, 2-{5-ethyl-6-[4-(4-hydroxy-2-methoxy-5-methylpyridine-3-carbonyl)piperazin-1-yl]-2-(2-methoxypyridin-4-yl)-7-oxo-2H,4H,7H-[1,2,3]triazolo[4,5-b]pyridin-4-yl}-N-[3-(oxolan-3-yl)bicyclo[1.1.1]pentan-1-yl]acetamide], in test [1] (Homo sapiens), the EC50 is greater than 5000 nM. The IC50 in test [2] lay in the range of 50 to 100 nM.

As for `CCc1c(N2CCN(C(=O)c3ncnc(C)c3O)[C@H]3CC[C@@H]32)c(=O)c2nn(C3=CCOCC3)nc2n1CC(=O)Nc1ccc(C(F)(F)F)cc1F` [Compound I-12, 2-(2-(3,6-dihydro-2H-pyran-4-yl)-5-ethyl-6-((1S,6S)-5-(5-hydroxy-6-methylpyrimidine-4-carbonyl)-2,5-diazabicyclo[4.2.0]octan-2-yl)-7-oxo-2,7-dihydro-4H-[1,2,3]triazolo[4,5-b]pyridin-4-yl)-N-(2-fluoro-4-(trifluoromethyl)phenyl)acetamide], the EC50 in test [1] (Homo sapiens) was no more than 500 nM. In addition, in test [2], the IC50 was no more than 5 nM.

As to `CCc1c(N2CCN(C(=O)c3cc4cc[nH]c4nc3OC)[C@H]3CC[C@@H]32)c(=O)c2nn(C3=CCOCC3)nc2n1CC(=O)NC12CC(C(C)C)(C1)C2` [Compound I-157, 2-[2-(3,6-dihydro-2H-pyran-4-yl)-5-ethyl-6-[(1S,6S)-5-{6-methoxy-1H-pyrrolo[2,3-b]pyridine-5-carbonyl}-2,5-diazabicyclo[4.2.0]octan-2-yl]-7-oxo-2H,4H,7H-[1,2,3]triazolo[4,5-b]pyridin-4-yl]-N-[3-(propan-2-yl)bicyclo[1.1.1]pentan-1-yl]acetamide], in test [1] (Homo sapiens), the EC50 is no more than 500 nM. The IC50 in test [2] was 5 to 50 nM.

As to `CCc1c(N2CCN(C(=O)c3c(OC)ncc(C4CC4)c3O)CC2)c(=O)c2nn(-c3ccnc(OC)c3)nc2n1CC(=O)NC12CC(C(C)C)(C1)C2` [Compound I-65, 2-{6-[4-(5-cyclopropyl-4-hydroxy-2-methoxypyridine-3-carbonyl)piperazin-1-yl]-5-ethyl-2-(2-methoxypyridin-4-yl)-7-oxo-2H,4H,7H-[1,2,3]triazolo[4,5-b]pyridin-4-yl}-N-[3-(propan-2-yl)bicyclo[1.1.1]pentan-1-yl]acetamide], the EC50 in test [1] (Homo sapiens) lay in the range of 500 to 2000 nM. Further, the IC50 in test [2] was 5 to 50 nM.

For the compound `CCc1c(C2=CCN(C(=O)c3ncnc(C)c3O)C[C@H]2C)c(=O)c2nn(-c3ccnc(OC)c3)nc2n1CC(=O)NC12CC(C(C)C)(C1)C2` (single isomer, unassigned) [Compound I-80], the EC50 in test [1] (Homo sapiens) was no more than 500 nM. In addition, the IC50 in test [2] was 5 to 50 nM.

Take `CCc1c(N2CCN(C(=O)c3ncnc(C)c3O)CC2)c(=O)c2nn(-c3ccncc3)nc2n1CC(=O)NC12CC(C(C)C)(C1)C2` [Compound I-134, 2-{5-ethyl-6-[4-(5-hydroxy-6-methylpyrimidine-4-carbonyl)piperazin-1-yl]-7-oxo-2-(pyridin-4-yl)-2H,4H,7H-[1,2,3]triazolo[4,5-b]pyridin-4-yl}-N-[3-(propan-2-yl)bicyclo[1.1.1]pentan-1-yl]acetamide]: the EC50 in test [1] (Homo sapiens) is 500 to 2000 nM. Also, in test [2], the IC50 is 5 to 50 nM.

As for `CCc1c(N2CCN(C(=O)c3c(O)ccc(C)c3OC)CC2)c(=O)c2nn(-c3ccnc(OC)c3)nc2n1CC(=O)NC12CC(C3CC3)(C1)C2` [Compound I-110, N-{3-cyclopropylbicyclo[1.1.1]pentan-1-yl}-2-{5-ethyl-6-[4-(6-hydroxy-2-methoxy-3-methylbenzoyl)piperazin-1-yl]-2-(2-methoxypyridin-4-yl)-7-oxo-2H,4H,7H-[1,2,3]triazolo[4,5-b]pyridin-4-yl}acetamide], the EC50 in test [1] (Homo sapiens) is 500 to 2000 nM. For the same compound, the IC50 in test [2] fell in the range of 5 to 50 nM.

Consider `CCc1c(N2CCN(C(=O)c3c(OCCOC)ncc(C)c3O)CC2)c(=O)c2nn(-c3ccnc(OC)c3)nc2n1CC(=O)NC12CC(C(C)C)(C1)C2` [Compound I-45, 2-(5-ethyl-6-{4-[4-hydroxy-2-(2-methoxyethoxy)-5-methylpyridine-3-carbonyl]piperazin-1-yl}-2-(2-methoxypyridin-4-yl)-7-oxo-2H,4H,7H-[1,2,3]triazolo[4,5-b]pyridin-4-yl)-N-[3-(propan-2-yl)bicyclo[1.1.1]pentan-1-yl]acetamide], for which the EC50 in test [1] (Homo sapiens) was no more than 500 nM. Also, the IC50 in test [2] fell in the range of 5 to 50 nM.

For `CCc1c(N2CCN(C(=O)c3ncnc(C)c3O)[C@H]3CC[C@@H]32)c(=O)c2nn(-c3ccnc(OC)c3)nc2n1CC(=O)NC12CC(C(F)(F)F)(C1)C2` [Compound I-54, 2-{5-ethyl-6-[(1S,6S)-5-(5-hydroxy-6-methylpyrimidine-4-carbonyl)-2,5-diazabicyclo[4.2.0]octan-2-yl]-2-(2-methoxypyridin-4-yl)-7-oxo-2H,4H,7H-[1,2,3]triazolo[4,5-b]pyridin-4-yl}-N-[3-(trifluoromethyl)bicyclo[1.1.1]pentan-1-yl]acetamide], the EC50 in test [1] is no more than 500 nM. For the same compound, the IC50 in test [2] is 5 to 50 nM.

For the compound `CCc1c(N2CCN(C(=O)OC)[C@H]3CC[C@@H]32)c(=O)c2nn(C3=CCOCC3)nc2n1CC(=O)NC12CC(C(C)C)(C1)C2` [Compound I-162, methyl (1S,6S)-5-[2-(3,6-dihydro-2H-pyran-4-yl)-5-ethyl-7-oxo-4-({[3-(propan-2-yl)bicyclo[1.1.1]pentan-1-yl]carbamoyl}methyl)-2H,4H,7H-[1,2,3]triazolo[4,5-b]pyridin-6-yl]-2,5-diazabicyclo[4.2.0]octane-2-carboxylate], in test [1] (Homo sapiens), the EC50 was no more than 500 nM. For the same compound, the IC50 in test [2] is 5 to 50 nM.

`CCc1c(N2CCN(C(=O)c3cc(N4CCC(C)(O)C4)cnc3OC)[C@H]3CC[C@@H]32)c(=O)c2nn(C3=CCOCC3)nc2n1CC(=O)NC12CC(C3CC3)(C1)C2` (stereo partly drawn) [Compound I-186, N-{3-cyclopropylbicyclo[1.1.1]pentan-1-yl}-2-[2-(3,6-dihydro-2H-pyran-4-yl)-5-ethyl-6-[(1S,6S)-5-[5-(3-hydroxy-3-methylpyrrolidin-1-yl)-2-methoxypyridine-3-carbonyl]-2,5-diazabicyclo[4.2.0]octan-2-yl]-7-oxo-2H,4H,7H-[1,2,3]triazolo[4,5-b]pyridin-4-yl]acetamide]: the EC50 in test [1] (Homo sapiens) was in the range of 500 to 2000 nM. The IC50 in test [2] was in the range of 5 to 50 nM.
